According to patent US6472348B1, “Pyridone derivatives and herbicides” (Kumiai Chemical Industry Co., Ltd., priority 1996, dated 2002):

Assays:
Format in all cases: in vivo
Parameters in all cases: scale not given here
[1] = system: common lambsquarters (Ch); assay: Test Example 9: crop plant selectivity by upland field foliage treatment (wheat), herbicidal effects; conditions: dose 1.6 g ai/10a, 14th day after treatment
Outline: (§1)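 Seeds of wheat, pale smartweed, slender amaranth, common lambsquarters and China jute are sown in sand and grown 2 weeks under glass. Foliage is then treated, culture resumes in the greenhouse, and damage is graded on the 14th day.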

[2] = system: pale smartweed (Po); assay: as above; conditions: dose 1.6 g ai/10a, 14th day after treatment
Outline: as §1

[3] = system: slender amaranth (Am); assay: as above; conditions: dose 1.6 g ai/10a, 14th day after treatment
Outline: as §1

[4] = system: China jute (Ab); assay: as above; conditions: dose 1.6 g ai/10a, 14th day after treatment
Outline: as §1

[5] = system: cotton (Go); assay: Test Example 4: crop plant selectivity by upland field soil treatment (cotton), phytotoxicity; conditions: evaluated 21st day after application
Outline: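 Cotton and weeds (incl. China jute, pale smartweed, slender amaranth) sown in sand-filled pots and covered with soil, then soil-treated. Grown in greenhouse; herbicidal effect and cotton phytotoxicity scored on day 21 after application against a rating standard.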

[6] = system: common lambsquarters (Ch); assay: Test Example 5: crop plant selectivity by upland field soil treatment (wheat), herbicidal effects; conditions: 21st day after application
Outline: (§2)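 Scores are visual ratings of herbicidal effect or wheat phytotoxicity, recorded on the 21st day after soil treatment of pots sown with wheat and weeds and kept in a greenhouse.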

[7] = system: green foxtail (Se); assay: as above; conditions: 21st day after application
Outline: as §2

[8] = system: pale smartweed (Po); assay: as above; conditions: 21st day after application
Outline: as §2

[9] = system: slender amaranth (Am); assay: as above; conditions: 21st day after application
Outline: as §2

[10] = system: China jute (Ab); assay: as above; conditions: 21st day after application
Outline: as §2

| SMILES | Herbicidal effects Ch [1] | Herbicidal effects Po [2] | Herbicidal effects Am [3] | Herbicidal effects Ab [4] | Phytotoxicity Go ([5]; dose 6.3 g ai/10 a) | Herbicidal effects Ch ([6]; dose 6.3 g ai/10a) | Herbicidal effects Se ([7]; dose 6.3 g ai/10a) | Herbicidal effects Po ([8]; dose 6.3 g ai/10a) | Herbicidal effects Am ([9]; dose 6.3 g ai/10a) | Herbicidal effects Ab ([10]; dose 6.3 g ai/10a) | Phytotoxicity Go ([5]; dose 1.6 g ai/10 a) | Herbicidal effects Ch ([6]; dose 1.6 g ai/10a) | Herbicidal effects Se ([7]; dose 1.6 g ai/10a) | Herbicidal effects Po ([8]; dose 1.6 g ai/10a) | Herbicidal effects Am ([9]; dose 1.6 g ai/10a) | Herbicidal effects Ab ([10]; dose 1.6 g ai/10a) |
| --- | --- | --- | --- | --- | --- | --- | --- | --- | --- | --- | --- | --- | --- | --- | --- | --- |
| C=CC(C)Oc1cc(-c2ccc(C(F)(F)F)n(C)c2=O)c(F)cc1Cl (stereo not shown) [Compound 1-182] | 5 | 5 | 5 | 5 | 0 | 5 | 5 | 5 | 5 | 5 |  |  |  |  |  |  |
| C#CCN1C(=O)COc2cc(F)c(-c3ccc(C(F)(F)F)n(C)c3=O)cc21 [Compound No. 2-1, 3-[7-fluoro-2,3-dihydro-4-(2-propynyl)-1,4-benzoxazin-3-on-6-yl]-1-methyl-6-trifluoromethyl-2(1H)-pyridone] |  |  |  |  |  |  |  |  |  |  | 2 | 5 | 5 | 5 | 5 | 5 |
| C#CCN1C(=O)COc2cc(F)c(-c3cn(C)c(C(F)(F)F)cc3=O)cc21 [Compound 7-1] | 5 | 5 | 5 | 5 | 1 |  | 5 | 5 | 5 | 5 |  |  |  |  |  |  |
| CC(C)Sc1cc(-c2ccc(C(F)(F)F)n(C)c2=O)c(F)cc1Cl [1-43] | 5 | 5 | 5 | 5 | 0 | 5 | 5 | 5 | 5 | 4 |  |  |  |  |  |  |
| CON=Cc1cc(-c2ccc(C(F)(F)F)n(C)c2=O)c(F)cc1Cl [Compound No. 1-72, 5-(1-methyl-6-trifluoromethyl-2(1H)-pyridon-3-yl)-2-chloro-4-fluorobenzaldehydeoxime-O-methyl ether] |  |  |  |  | 0 |  |  |  |  |  | 0 | 5 | 5 | 5 | 5 | 5 |
| C=CC(O)c1cc(-c2ccc(C(F)(F)F)n(C)c2=O)c(F)cc1Cl (stereo not shown) [Compound 1-197] | 5 | 5 | 5 | 5 | 1 | 5 | 5 | 5 | 5 | 5 |  |  |  |  |  |  |
| Cn1cc(-c2cc(Oc3ccccc3)c(Cl)cc2F)c(=O)cc1C(F)(F)F [Compound No. 6-19, 5-(4-chloro-2-fluoro-5-phenoxyphenyl)-1-methyl-2-trifluoromethyl-4(1H)-pyridone] |  |  |  |  | 0 | 5 | 5 | 5 | 5 | 5 | 0 | 5 | 5 | 5 | 5 | 3 |
| COCSc1cc(-c2ccc(C(F)(F)F)n(C)c2=O)c(F)cc1Cl [1-91] | 5 | 5 | 5 | 5 | 1 |  |  |  |  |  | 0 | 5 | 5 | 5 | 5 | 5 |
| Cn1c(C(F)(F)F)ccc(-c2cc(OCC#N)c(Cl)cc2F)c1=O [1-25] | 5 | 5 | 5 | 5 | 1 |  |  |  |  |  |  |  |  |  |  |  |
| C#CC(O)c1cc(-c2ccc(C(F)(F)F)n(C)c2=O)c(F)cc1Cl (stereo not shown) [Compound 1-202] | 5 | 5 | 5 | 5 | 1 |  |  |  |  |  | 1 | 5 | 5 | 5 | 5 | 5 |
| CCOC(=O)c1cc(-c2ccc(C(F)(F)F)n(C)c2=O)c(F)cc1Cl [1-65] | 5 | 5 | 5 | 5 | 0 | 5 | 5 | 5 | 5 | 5 | 0 | 5 | 5 | 5 | 5 | 5 |
| Cn1c(C(F)(F)F)ccc(-c2cc(Cl)c(Cl)cc2F)c1=O [1-136] |  |  |  |  | 1 | 5 | 5 | 5 | 5 | 5 |  | 5 | 5 | 5 | 5 | 4 |
| COCc1cc2c(-c3ccc(C(F)(F)F)n(C)c3=O)c(F)cc(Cl)c2o1 [Compound No. 4-4, 3-(7-chloro-5-fluoro-2-methoxymethylbenzofuran-4-yl)-1-methyl-6-trifluoromethyl-2-(1H)-pyridone] |  |  |  |  | 1 |  |  |  |  |  | 0 | 5 | 5 | 5 | 5 | 5 |
| C=CCN1C(=O)COc2cc(Cl)c(-c3ccc(C(F)(F)F)n(C)c3=O)cc21 [Compound 2-26] | 5 | 5 | 5 | 5 | 1 | 5 | 5 | 5 | 5 | 5 |  |  |  |  |  |  |
| C=CCN1C(=O)COc2cc(F)c(-c3ccc(C(F)(F)F)n(C)c3=O)cc21 [Compound 2-7] |  |  |  |  | 1 |  |  |  |  |  | 0 | 4 | 5 | 5 | 5 | 5 |
| C=CCOc1cc(-c2ccc(C(F)(F)F)n(C)c2=O)c(F)cc1Cl [1-16] | 5 | 5 | 5 | 5 | 0 | 5 | 5 | 5 | 5 | 5 | 0 | 5 | 5 | 5 | 5 | 5 |
| C#CC(C)Oc1cc(Cl)cc(F)c1-c1ccc(C(F)(F)F)n(C)c1=O (stereo not shown) [1′-5] | 5 | 5 | 5 | 5 | 0 | 5 | 5 | 5 | 5 | 5 | 0 | 5 | 4 | 5 | 5 | 5 |
| C#CCOc1cc(-c2ccc(C(F)(F)F)n(C)c2=O)c(F)cc1Cl [1-18] |  |  |  |  | 1 |  |  |  |  |  | 1 | 5 | 5 | 5 | 5 | 5 |
| C#CCSc1cc(-c2ccc(C(F)(F)F)n(C)c2=O)c(F)cc1Cl [1-44] | 5 | 5 | 5 | 5 | 1 | 5 | 5 | 5 | 5 | 5 |  |  |  |  |  |  |
| Cn1c(C(F)(F)F)ccc(-c2c(F)cc(Cl)c3oc(CO)cc23)c1=O [Compound No. 4-5, 3-(7-chloro-5-fluoro-2-hydroxymethylbenzofuran-4-yl)-1-methyl-6-trifluoromethyl-2-(1H)-pyridone] | 5 | 5 | 5 | 5 | 2 | 5 | 5 | 5 | 5 | 5 |  |  |  |  |  |  |
| C#CC(C)Oc1cc(-c2cn(C)c(C(F)(F)F)cc2=O)c(F)cc1Cl (racemic) [Compound 6-10] |  |  |  |  | 1 |  |  |  |  |  | 0 | 5 | 4 | 5 | 5 | 4 |
| C#CCn1c(=O)sc2cc(F)c(-c3ccc(C(F)(F)F)n(C)c3=O)cc21 [Compound No. 3-1, 3-[6-fluoro-3-(2-propynyl)-benzothiazolin-2-on-5-yl]-1-methyl-6-trifluoromethyl-2(1H)-pyridone] |  |  |  |  | 1 | 5 | 5 | 5 | 5 | 5 | 0 |  |  |  |  |  |
| Cn1c(C(F)(F)F)ccc(-c2cc(OCC(F)(F)F)c(Cl)cc2F)c1=O [1-155] |  |  |  |  | 0 | 5 | 5 | 5 | 5 | 5 | 0 | 5 | 5 | 5 | 5 | 5 |
| COc1cc(-c2ccc(C(F)(F)F)n(C)c2=O)c(F)cc1Cl [1-15] |  |  |  |  | 1 |  |  |  |  |  | 0 | 5 | 5 | 5 | 5 | 5 |
| C#CC(C)Oc1cc(-c2ccc(C(F)(F)F)n(C)c2=O)c(F)cc1Cl (stereo not shown) [1-17] |  |  |  |  | 0 |  |  |  |  |  | 0 | 5 | 5 | 5 | 5 | 5 |
